{"source": "patent US20210121562A1", "about": "“PHARMACEUTICAL COMPOSITION FOR TREATMENT AND/OR PREVENTION OF CANCER” (TORAY INDUSTRIES, INC., priority 2018, published 2021)", "origin": "cited, not measured here", "key": {"basal cell cancer": {"system": "basal cell cancer", "conditions": "basal cell cancer in patients having histories of rituximab administration for non-Hodgkin lymphoma"}, "[1]": {"system": "extramammary Paget's disease", "conditions": "supportive care for extramammary Paget's disease"}}}
{"smiles": "CC(C)Cn1cnc2c(N)nc3ccccc3c21", "note": "[imiquimod, 4-amino-1-(2-methylpropyl)-1H-imidazo[4,5-c]quinoline]", "values": [{"measurement": "antitumor effect of imiquimod", "setting": "basal cell cancer", "value": "attenuated"}, {"measurement": "cases completely responded", "setting": "[1]", "value": "7 out of 9"}]}
